Data on two molecules can be found in PubChem BioAssay AID825 (PCMD, 2007).

The target of the experiment is Procathepsin L (Homo sapiens) (UniProt P07711). Description: IC50 of CTSL protease blockers – biochemical, confirmation, dose response (AID 825). The note with it: purified cathepsin L enzyme activity, signal read-out.

Results filed as inconclusive are left out. Active and inactive are the calls of the source. The rule behind the calls is not given here.

A word on the IC50: it is the concentration that inhibits the measured activity by half.

Chain of Procathepsin L (Homo sapiens) (P07711 114-288 limits assumed): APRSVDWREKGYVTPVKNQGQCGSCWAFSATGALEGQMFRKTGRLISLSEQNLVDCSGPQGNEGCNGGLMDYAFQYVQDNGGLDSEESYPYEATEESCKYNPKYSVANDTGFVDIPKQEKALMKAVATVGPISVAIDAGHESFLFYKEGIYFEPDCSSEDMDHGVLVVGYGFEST
Chain of Procathepsin L (Homo sapiens) (P07711 292-333 limits assumed): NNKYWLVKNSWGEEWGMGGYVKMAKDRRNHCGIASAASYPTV

As for `COc1ccc(OC)c(C2C(C#N)=C(N)Oc3cc(C)n(Cc4ccccn4)c(=O)c32)c1` (configuration not stated), the IC50 is > 50 µM (inactive).
With `CC(=O)Nc1nc2n(n1)C(c1ccc(F)cc1)C=C(c1ccccc1)N2` (configuration not stated), the IC50 was > 50 µM (inactive).
